Source: patent US7736624B2, “Methods and compositions for diagnostic and therapeutic targeting of COX-2” (priority 2006, dated 2010)
Like-named read-outs stand apart in the source and are kept apart here.

Columns and labels:
Fluorescence in buffer = assay type: physicochemical; conditions: for Fluor. λem: emission; for Fluor. λex: excitation
COX-2 [1] = target: T1, COX-2 (Homo sapiens, UniProt P35354); test: IC50 determinations using purified enzymes (TLC assay), COX-2; assay type: biochemical; set-up: made in house; host or cells: Sf9 insect cells; conditions: assayed against purified enzymes, read-out: IC50 COX-2
T1 sequence (P35354 18-604): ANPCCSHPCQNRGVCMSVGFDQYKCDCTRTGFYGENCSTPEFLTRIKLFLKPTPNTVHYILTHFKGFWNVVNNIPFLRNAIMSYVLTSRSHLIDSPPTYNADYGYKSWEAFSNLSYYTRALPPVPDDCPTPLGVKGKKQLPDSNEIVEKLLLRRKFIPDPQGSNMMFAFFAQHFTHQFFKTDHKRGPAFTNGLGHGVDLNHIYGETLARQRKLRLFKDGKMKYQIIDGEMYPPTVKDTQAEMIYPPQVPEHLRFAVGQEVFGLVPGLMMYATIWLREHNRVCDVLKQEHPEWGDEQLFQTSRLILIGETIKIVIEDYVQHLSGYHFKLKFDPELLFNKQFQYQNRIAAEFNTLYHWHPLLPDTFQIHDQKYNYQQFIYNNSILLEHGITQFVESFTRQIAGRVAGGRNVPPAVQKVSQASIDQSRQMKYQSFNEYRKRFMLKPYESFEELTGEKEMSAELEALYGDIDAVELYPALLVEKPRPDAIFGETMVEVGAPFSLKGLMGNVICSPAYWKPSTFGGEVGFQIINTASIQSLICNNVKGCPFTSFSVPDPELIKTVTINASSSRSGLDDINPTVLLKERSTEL

COX-2 [2] = target: T2, COX-2 (Mus musculus, UniProt Q05769); test: Macrophage assay (RAW264.7), COX-2; assay type: cell-based, murine
T2 construct: metabolism by the newly synthesized COX-2; endogenous in cells
T2 sequence (Q05769 18-604): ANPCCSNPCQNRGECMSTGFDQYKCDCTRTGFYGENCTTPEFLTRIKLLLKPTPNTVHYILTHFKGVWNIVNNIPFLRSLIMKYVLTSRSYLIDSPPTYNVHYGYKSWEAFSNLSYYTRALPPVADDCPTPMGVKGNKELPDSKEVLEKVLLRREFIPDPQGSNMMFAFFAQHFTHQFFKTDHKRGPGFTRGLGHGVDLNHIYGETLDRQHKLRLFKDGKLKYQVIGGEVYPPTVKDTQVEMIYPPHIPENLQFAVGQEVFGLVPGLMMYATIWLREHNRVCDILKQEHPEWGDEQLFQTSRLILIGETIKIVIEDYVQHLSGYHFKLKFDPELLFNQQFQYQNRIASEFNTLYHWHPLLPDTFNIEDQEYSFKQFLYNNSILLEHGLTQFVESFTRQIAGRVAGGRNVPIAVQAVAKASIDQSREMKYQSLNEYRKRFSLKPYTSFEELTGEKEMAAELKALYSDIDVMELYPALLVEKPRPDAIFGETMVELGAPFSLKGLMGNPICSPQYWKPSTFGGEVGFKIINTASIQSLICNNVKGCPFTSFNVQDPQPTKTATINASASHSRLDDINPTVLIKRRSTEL
From the text: Thus, NSAID derivatives that are identified as potentially useful in the methods described herein can be further tested using, for example, the RAW264.7 murine macrophage cell line. These cells are readily available (for example, from the American Type Culture Collection (ATCC), Manassas, Va., United States of America) and are easily cultured in large numbers. They normally express low levels of COX-1 and very low to undetectable levels of COX-2. Upon exposure to bacterial lipopolysaccharide (LPS), however, COX-2 levels increase dramatically over the ensuing 24 hour period, and the cells produce PGD2 and PGE2 from endogenous arachidonic acid stores (generally, ˜1 nmol/10^7 cells total PG formation). After LPS exposure, the addition of exogenous arachidonic acid results in the formation of additional PGD2 and PGE2 as a result of metabolism by the newly synthesized COX-2.
This system provides a number of approaches for testing the inhibitory potency of COX-2-selective ligands (e.g., inhibitors). In general, following LPS activation, cells can be treated for 30 minutes with the desired concentrations of candidate derivative(s) in DMSO. ^14C-arachidonic acid can be added, and the cells can be incubated for 15 minutes at 37° C. Product formation can be assessed following extraction and TLC separation of the culture medium. Alternatively, the effects of candidate derivatives on PG synthesis from endogenous arachidonic acid can be assessed by incubating cells with desired concentrations of candidate derivatives 30 minutes prior to LPS exposure. Following a 24-hour incubation, medium can be collected and extracted, and the amount of PGD2 and/or PGE2 can be assayed by gas chromatography-mass spectrometry, liquid chromatography-mass spectrometry, or ELISA.

[3] = Table 3, macrophage assay, read-out: IC50 COX-2

## COc1ccc2c(c1)c(CC(=O)NCCNS(=O)(=O)c1ccc(/N=N/c3ccc(N(C)C)cc3)cc1)c(C)n2C(=O)c1ccc(Cl)cc1 [Compound 27aa, N-(2-Dabsylaminoethyl)-2-{1-(4-chlorobenzoyl)-5-methoxy-2-methyl-1H-indol-3-yl}acetamide]
Fluorescence in buffer
  Fluor. λem: 450 nm
  Fluor. λex: 390 nm
COX-2 [1]; Table 3
  IC50: 80 nM
COX-2 [2]; [3]
  IC50: 1.8e-07 M

## COc1ccc2c(c1)c(CC(=O)NCCCCNC(=O)c1ccc(C3=c4cc5c6c(c4Oc4c3cc3c7c4CCCN7CCC3)CCC[N+]=6CCC5)c(C(=O)[O-])c1)c(C)n2C(=O)c1ccc(Cl)cc1 [Compound 27eee]
COX-2 [1]; Table 3
  IC50: 700 nM
COX-2 [2]; read-out: IC50 in RAW 264.7 cells
  IC50: 3.2e-07 M

## COc1ccc2c(c1)c(CC(=O)NCCCCNC(=O)Cc1ccc(Nc3ccc([N+](=O)[O-])c4nonc34)cc1)c(C)n2C(=O)c1ccc(Cl)cc1 [Compound 27ii, N-([2-{4-(7-nitrobenzo[1,2,5]oxadiazol-4-ylamino)phenyl}acetamido]but-4-yl)-2-{1-(4-chlorobenzoyl)-5-methoxy-2-methyl-1H-indol-3-yl]acetamide]
Fluorescence in buffer
  Fluor. λem: 605 nm
  Fluor. λex: 492 nm
COX-2 [1]; Table 3
  IC50: 500 nM
COX-2 [2]; [3]
  IC50: 5.7e-07 M

## COc1ccc2c(c1)c(CC(=O)NCCCCNC(=O)c1ccc(C(=O)O)c(-c3c4ccc(=O)cc-4oc4cc(O)ccc34)c1)c(C)n2C(=O)c1ccc(Cl)cc1 [Compound 27qq, N-[(Fluorescein-6-carboxylamido)but-4-yl]-2-[1-(4-chlorobenzoyl)-5-methoxy-2-methyl-1H-indol-3-yl)acetamide]
COX-2 [1]; Table 3
  IC50: > 25000 nM
COX-2 [2]; [3]
  IC50: 1.88e-07 M

## CC[N+](CC)=c1ccc2c(-c3ccccc3)c(C)c(/C=C/C=C3/N(CCCCCC(=O)NCCCCNC(=O)Cc4c(C)n(C(=O)c5ccc(Cl)cc5)c5ccc(OC)cc45)c4ccc(S(=O)(=O)[O-])cc4C3(C)C)oc-2c1 [Compound 27ttt]
Fluorescence in buffer
  Fluor. λem: 731 nm
  Fluor. λex: 710 nm
COX-2 [1]; Table 3
  IC50: 1000 nM
COX-2 [2]; [3]
  IC50: 8.9e-07 M

## CC[N+](CC)=c1ccc2nc3c(cc(NC(=O)CCOCCOCCOCCOCCNC(=O)Cc4c(C)n(C(=O)c5ccc(Cl)cc5)c5ccc(OC)cc45)c4ccccc43)oc-2c1 [Compound 27uu, N-[5-)1-{1-(4-chlorobenzoyl)-5-methoxy-2-methyl-1H-indol-3-yl}-2-6,9,12,15-tetraoxa-3-azaoctadecanamido]-9H-benzo[a]penoxazin-9-ylidene)-N-ethylethanaminium perchlorate]
Fluorescence in buffer
  Fluor. λem: 670 nm
  Fluor. λex: 618 nm
COX-2 [1]; Table 3
  IC50: 1700 nM
COX-2 [2]; [3]
  IC50: 8.5e-08 M

## COc1ccc2c(c1)c(CC(=O)NCCCCNC(=O)c1ccc(C(=O)[O-])c(C3=c4cc5c6c(c4Oc4c3cc3c7c4CCCN7CCC3)CCC[N+]=6CCC5)c1)c(C)n2C(=O)c1ccc(Cl)cc1 [Compound 27vv]
Fluorescence in buffer
  Fluor. λem: 603 nm
  Fluor. λex: 581 nm
COX-2 [1]; Table 3
  IC50: 3500 nM

## COc1ccc2c(c1)c(CC(=O)NCCNS(=O)(=O)c1cccc3c(N(C)C)cccc13)c(C)n2C(=O)c1ccc(Cl)cc1 [Compound 27x]
Fluorescence in buffer
  Fluor. λem: 493 nm
  Fluor. λex: 355 nm
COX-2 [1]; Table 3
  IC50: 66 nM
COX-2 [2]; [3]
  IC50: 3e-08 M

## COC(=O)c1cc(-c2ccc(C)cc2)n(-c2ccc(S(N)(=O)=O)cc2)n1 [Compound 30b]
COX-2 [1]; Table 2
  IC50: 920 nM
COX-2 [2]; Table 2, macrophage assay (M), read-out: IC50 COX-2
  IC50: 1.1e-07 M
